Measurements published in patent publication US20190218226A1, “PRODRUGS OF ANTICANCER AGENTS INDOTECAN AND INDIMITECAN” (Purdue Research Foundation, priority 2016, published 2019).

Key:
[1] = test system: HCT-116; test: NCI60 antiproliferative screen, colon HCT-116; assay type: cell-based, human; conditions: HCT-116, 48 h, sulforhodamine B; read-out: Cytotoxicity (GI50) Colon HCT-116
Summary of the method: (§1)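 SRB read-out after 48 h exposure; five concentrations, 0.01–100 μM in tenfold steps. Percent growth vs control plotted against log10 conc; GI50 by interpolation across 50% growth.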

[2] = molecular target: T1, Human recombinant Top1 (Homo sapiens, UniProt P11387); test: Top1-mediated DNA cleavage assay; assay type: biochemical; design: key to Top 1 Cleavage: 0, no inhibitory activity; +, between 20 and 50% activities; ++, between 50 and 75% activity; +++, between 75 and 95% activity; ++++, equipotent; conditions: graded relative to 1 μM camptothecin
T1 construct: made in house
T1 sequence (P11387 1-765): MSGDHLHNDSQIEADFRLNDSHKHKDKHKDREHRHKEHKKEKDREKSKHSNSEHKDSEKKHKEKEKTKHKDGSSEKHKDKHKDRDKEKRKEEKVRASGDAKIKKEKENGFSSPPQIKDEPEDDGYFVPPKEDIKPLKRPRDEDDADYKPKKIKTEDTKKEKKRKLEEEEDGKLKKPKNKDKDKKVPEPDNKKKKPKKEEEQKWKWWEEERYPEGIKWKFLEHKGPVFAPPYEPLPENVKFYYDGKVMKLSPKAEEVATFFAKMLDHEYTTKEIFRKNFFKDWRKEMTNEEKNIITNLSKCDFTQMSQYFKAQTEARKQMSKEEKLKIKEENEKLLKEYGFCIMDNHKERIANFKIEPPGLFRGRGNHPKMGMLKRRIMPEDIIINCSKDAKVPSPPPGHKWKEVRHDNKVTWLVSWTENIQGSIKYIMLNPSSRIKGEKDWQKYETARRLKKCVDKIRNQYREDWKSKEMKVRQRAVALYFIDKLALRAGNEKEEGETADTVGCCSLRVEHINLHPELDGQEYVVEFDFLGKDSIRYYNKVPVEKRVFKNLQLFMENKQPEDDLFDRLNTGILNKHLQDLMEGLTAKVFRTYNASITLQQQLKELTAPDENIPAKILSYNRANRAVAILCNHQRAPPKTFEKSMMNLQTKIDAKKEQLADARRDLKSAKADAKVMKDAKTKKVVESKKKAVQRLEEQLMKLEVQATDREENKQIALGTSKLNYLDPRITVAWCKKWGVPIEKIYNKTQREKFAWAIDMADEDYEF
Summary of the method: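 About 2 nM 3′-[32P]-labelled 117-bp DNA incubated with baculovirus-expressed recombinant Top1 at 25 °C for 20 min (Tris pH 7.5, KCl, MgCl2, EDTA, BSA) at four compound concentrations; stopped with 0.5% SDS. Denaturing 20% PAGE, phosphorimaging; cleavage scored semiquantitatively (0 to ++++) against reference compounds.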

[3] = test system: all human cancer cell lines successfully tested (NCI60); test: NCI60 mean graph midpoint for growth inhibition; assay type: cell-based; conditions: all human cancer cell lines successfully tested; ± standard error; read-out: MGM (mean graph midpoint for growth inhibition)
Summary of the method: as §1

Top 1 Cleavage [2]: 0
Structure (SMILES): COC(=O)CCC(=O)Oc1cc2c(=O)n(CCCN3CCOCC3)c3c(c2cc1OC)C(=O)c1cc2c(cc1-3)OCO2 [Compound 17, 2-Methoxy-6-(3-morpholinopropyl)-5,12-dioxo-6,12-dihydro-5H-[1,3]dioxolo[4′,5′:5,6]indeno[1,2-c]isoquinolin-3-yl Methyl Succinate]
GI50 [1]: 20 nM
mean GI50 across NCI60 cell lines (MGM) [3]: 36 ± 18 nM
